From patent publication EP4800018A1, “PAN-KRAS INHIBITOR AND USE THEREOF IN MEDICINES” (Betta Pharmaceuticals Co., Ltd., priority 2023, dated 2025)
pIC50: −log10 of the molar value.

Columns and labels:
KRAS G12D-cRAF = molecular target: T1, KRAS G12D-cRAF (Homo sapiens, UniProt P01116, G12D); experiment: Cellular KRAS G12D-cRAF Binding Inhibition Assay (NanoBRET, AD293 stable cells); format: cell-based; conditions: 3 h incubation, read-out: NanoBRET KRAS G12D
T1 construct: expressed in transfected cells
T1 sequence (P01116 1-188 isoform P01116-2 G12D): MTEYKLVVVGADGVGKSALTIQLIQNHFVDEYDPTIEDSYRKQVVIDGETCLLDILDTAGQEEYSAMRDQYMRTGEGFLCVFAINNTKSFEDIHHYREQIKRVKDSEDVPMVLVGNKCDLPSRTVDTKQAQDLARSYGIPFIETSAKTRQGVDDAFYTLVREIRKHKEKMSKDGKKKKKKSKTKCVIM
Procedure, shortened: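 AD293 cells stably expressing KRAS G12D-NanoLuc and cRAF RBD-HaloTag were seeded at 1×10^4 cells/well with NanoBRET 618 ligand overnight. BRET signal was converted to % inhibition of binding relative to max and blank wells, and IC50 came from curve fitting.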

[1] = test system: KRAS-G12V mutant tumor cells SW620; experiment: Cell Proliferation Inhibition Assay (SW620), Cell-titer GLO, 96 h; format: cell-based; conditions: Homo sapiens, SW-620, 96 h, SW620 cells, 96 h incubation, Cell-titer GLO; read-out: SW620(G12V)
Procedure, shortened: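 SW620 cells (1×10^3/well, low-attachment) were exposed to compound from 10000 to 0.03 nM (0.5% DMSO) for 96 h at 37°C. Viability was read by Cell-titer GLO luminescence. Inhibition was calculated relative to DMSO and blank wells, and IC50 obtained by curve fitting.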

[2] = test system: KRAS-G12D mutant tumor cells AGS; experiment: Cell Proliferation Inhibition Assay (AGS), Cell-titer GLO, 96 h; format: cell-based; conditions: Homo sapiens, AGS, 96 h, AGS cells, 96 h incubation, Cell-titer GLO; read-out: AGS(G12D)
Procedure, shortened: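 AGS cells (KRAS-G12D) grown in low-attachment plates were exposed to compound for 96 h at 37°C. Viability was read by CellTiter-Glo luminescence and converted to % inhibition against max and blank wells. IC50 came from curve fitting.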

[3] = PK Study of Compounds in Mice; format: in vivo, Female ICR mice; conditions: mean; for Cmax: read-out: C0/Cmax
Description: The test compound was mixed with the vehicle (10% DMSO/5% Solutol/85% physiological saline), vortexed and sonicated to prepare a clear 0.2 mg/mL intravenous injection solution. The test compound was mixed with the vehicle (20% PEG400/10% Solutol/70% pH 4.5 acetate buffer), vortexed and sonicated to prepare a clear 1 mg/mL oral solution. Female ICR mice aged 6 to 7 weeks were selected and administered the test compound via intravenous (IV) and oral (PO) routes, respectively. Whole blood samples were collected at 5 min, 15 min, 30 min, 1 h, 2 h, 4 h, 7 h, and 24 h for the intravenous route, and at 15 min, 30 min, 1 h, 2 h, 4 h, 7 h, and 24 h for the oral route. Drug concentrations were analyzed by LC-MS/MS method, and pharmacokinetic parameters were calculated using Phoenix WinNonlin software (Pharsight, USA).

[4] = PK Study of Compounds in Dogs; format: in vivo, Beagle dogs; conditions: mean; for Cmax: read-out: C0/Cmax
Description: The test compound was mixed with the vehicle (10% DMSO/5% Solutol/85% physiological saline), vortexed and sonicated to prepare a clear 1 mg/mL intravenous injection solution. The test compound was mixed with the vehicle (10% DMSO + 5% HS15 + 85% 10 mM aqueous citric acid solution), vortexed and sonicated to prepare a clear 0.6 mg/mL oral solution. Beagle dogs (two males, one female) were selected and administered the test compound via intravenous (IV) and oral (PO) routes, respectively. Whole blood samples were collected at 0 min, 5 min, 15 min, 30 min, 1 h, 2 h, 4 h, 6 h, 8 h, 12 h, 24 h, 48 h, and 72 h for the intravenous route, and at 0 min, 15 min, 30 min, 1 h, 2 h, 4 h, 6 h, 8 h, 12 h, 24 h, 48 h, and 72 h for the oral route. Drug concentrations were analyzed by LC-MS/MS method, and pharmacokinetic parameters were calculated using Phoenix WinNonlin software (Pharsight, USA).

[5] = female, ICR, mouse, whole blood, IV 1 mg/kg (n=3)
[6] = female, ICR, mouse, whole blood, PO 10 mg/kg (n=3)
[7] = both sexes, beagle, dog, whole blood, IV 1 mg/kg (n=3)
[8] = both sexes, beagle, dog, whole blood, PO 3 mg/kg (n=3)

- pIC50 (KRAS G12D-cRAF): 9.10
- pIC50 [1]: 9.82
- pIC50 [2]: 9.38
- F ([3]; PO 10 mg/kg vs IV 1 mg/kg (n=3)): 31.1
- AUC(0-t) [3, 5]: 3260 ng·h/mL
- clearance [3, 5]: 4.45 mL/min/kg
- half-life [3, 5]: 9.31 h
- Cmax [3, 5]: 571 ng/mL
- Vd ([3]; female, ICR, mouse, whole blood, IV 1 mg/kg (n=3), read-out: Vss): 3.09 L/kg
- AUC(0-t) [3, 6]: 10100 ng·h/mL
- Tmax [3, 6]: 4 h
- Cmax [3, 6]: 679 ng/mL
- F ([4]; PO 3 mg/kg vs IV 1 mg/kg (n=3)): 41.2
- AUC(0-t) [4, 7]: 16600 ng·h/mL
- clearance [4, 7]: 0.659 mL/min/kg
- half-life [4, 7]: 34.8 h
- Cmax [4, 7]: 2020 ng/mL
- Vd ([4]; both sexes, beagle, dog, whole blood, IV 1 mg/kg (n=3), read-out: Vss): 2.62 L/kg
- AUC(0-t) [4, 8]: 20500 ng·h/mL
- Tmax [4, 8]: 1.17 h
- Cmax [4, 8]: 608 ng/mL
Structure (SMILES): CC1OCCCn2c(c3c4cc(ccc42)-c2csc(n2)CC(NC(=O)C2C(C)C2C)C(=O)N2NC(C(=O)OCC(C)(C)C3)C3CC2C3)-c2cc(N3CCN(C)CC3)cnc21 [Example 186, (1r,2R,3S)-2,3-dimethyl-N-((1^5S,6^4S,4S,Z)-1^5,10,10-trimethyl-1^2-(4-methylpiperazin-1-yl)-5,7-dioxo-1^8,1^9-dihydro-1^5H,1^7H-8-oxa-6^2,6^3-diaza-1(13,15)-pyrido[3',2':7,8][1,5]oxazonino[5,6-a]indola-2(4,2)-thiazola-6(2,4)-bicyclo[3.1.1]heptanacycloundecaphane-4-yl)cyclopropane-1-carbox amide]
